Biological target: Tyrosine-protein kinase BTK (Homo sapiens, UniProt Q06187)
Assay: Inhibition Assay: The inhibitory properties of compounds relative to BTK is determined using a black 384-well-plate format in a buffer which contains 50 mM Hepes, 10 mM NaCl, 10 mM MgCl2, 0.2 mM EDTA, 0.01% Brij35®, 1 mM DTT, and 0.1 mg/mL BSA at pH 7.3. The test compound is prepared in DMSO using 2-fold serial dilutions for 11 data points, which are added to the buffer so that each dilution contains 3% DMSO. […] The reaction mixtures are incubated at room temperature for 60 minutes and then quenched by adding 25 μL of 50 mM EDTA. To quantify the fluorescent-labeled substrate and product following reaction, the test plate is loaded on a Caliper LC-3000, which measures percent of conversion by microfluidic-based separation.

Tyrosine-protein kinase BTK, sequence (Q06187 whole entry): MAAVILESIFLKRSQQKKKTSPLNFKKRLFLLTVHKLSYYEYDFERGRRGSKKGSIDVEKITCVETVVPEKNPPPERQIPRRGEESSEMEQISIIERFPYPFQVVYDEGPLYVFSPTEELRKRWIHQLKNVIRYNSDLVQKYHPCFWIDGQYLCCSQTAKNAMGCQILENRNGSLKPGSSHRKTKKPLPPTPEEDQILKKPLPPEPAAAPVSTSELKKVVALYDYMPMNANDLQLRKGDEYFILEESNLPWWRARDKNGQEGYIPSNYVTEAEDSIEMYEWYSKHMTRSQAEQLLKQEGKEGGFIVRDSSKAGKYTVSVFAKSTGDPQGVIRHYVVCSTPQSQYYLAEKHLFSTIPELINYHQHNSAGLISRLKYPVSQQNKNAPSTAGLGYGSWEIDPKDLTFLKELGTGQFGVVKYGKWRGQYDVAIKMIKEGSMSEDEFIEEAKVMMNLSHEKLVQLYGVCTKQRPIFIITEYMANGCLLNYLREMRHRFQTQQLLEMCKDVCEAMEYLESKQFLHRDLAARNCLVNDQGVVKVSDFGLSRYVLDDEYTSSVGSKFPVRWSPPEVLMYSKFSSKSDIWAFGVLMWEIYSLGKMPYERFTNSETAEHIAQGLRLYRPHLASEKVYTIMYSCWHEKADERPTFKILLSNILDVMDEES

| IC50 [nM] | Structure (SMILES) |
| --- | --- |
| < 1.26 | C=CC(=O)N1CC[C@H](Oc2nc(-c3n[nH]c(=O)[nH]3)cc3cccc(F)c23)C1 |
| < 1.26 | C=CC(=O)N1CC[C@H](Oc2nc(-c3n[nH]c(=O)[nH]3)cc3ccc(Cl)cc23)C1 |

Reference: ChEMBL document CHEMBL5726562, “Pyridinyl and fused pyridinyl triazolone derivatives” (2017)
